Test results as given in patent US20240398783A1, “Compounds and Pharmaceutical Compositions Comprising Inhibitors of Amyloid Peptide Interactions with Glycosaminoglycans, Methods of Treatment and Use Thereof” (Gismo Therapeutics, Inc., priority 2021, published 2024).
Counter-ions that a name gives are not always drawn. Like-named read-outs stand apart in the source and are kept apart here.

Key:
[1] = biological target: Tau binding to heparin (HS-GAG) (Homo sapiens, UniProt P10636); test: Inhibition of Tau binding to immobilized heparin-BSA (ELISA); set-up: species or system porcine; settings: for inhibition at 30 µM: read-out: Tau/Heparin Activity (% inhibition class); for IC50: Tau/Heparin Activity (IC-50)
Description: (§1) Porcine intestinal mucosa heparin conjugated to Bovine Serum Albumin (Heparin-BSA) was prepared as described (Najjam, S. et al. 1997, Cytokine 12, 1013-1022). Heparin is a sulfated HS-GAG and is commonly used as a HS-GAG in biochemical and binding assays (Lindahl, U. and Kjellen, L. (2013) ibid). Heparin-BSA at 0.01 mg/ml in Phosphate Buffered Saline (PBS; pH 7.4) was added to a 96 well polystyrene ELISA plate (NUNC Cat. No. 449824; 100 μl per well) and incubated Over Night (ON) at 4 degrees Celsius. For negative controls, ELISA plates were coated with BSA instead of Heparin-BSA, using the same procedure. Following the incubation, the plate was washed consecutively, by immersion, with de-ionized water and PBS (pH 7.4). The ELISA plate was then blocked with nonfat milk (2%, 200 μl per well) for 2 hours at Room Temperature (RT) with gentle shaking. Following blocking, the plate was washed with de-ionized water then PBS (pH 7.4). GBAPs were dissolved and diluted in PBS (pH 6.5, supplemented with 0.1% BSA) at desired concentrations, added to the ELISA plates containing immobilized Heparin-BSA (100 μl per well) and incubated for 2 hours at RT with gentle shaking. Following incubation, the plate was washed with de-ionized water and three times with PBS (pH 6.5) plus Tween. Bound GBAP was detected by a monoclonal antibody specific for that GBAP, followed by incubation with secondary antibody conjugated to horseradish peroxidase (HRP). Antibody was diluted in PBS (pH 6.5 supplemented with 1% BSA). Following each incubation with antibody, the plate was washed with de-ionized water and three times with PBS (pH 6.5) wash buffer containing 0.1% Tween. The peroxidase substrate chromogen, TMB (Dako Cat. No. S1599) was added (100 μl per well) to the ELISA plate and incubated at room temperature. After 5 minutes ELISA Stop Solution (hydrochloric acid 1N, sulfuric acid 3N) was added (100 μl per well) to stop the peroxidase catalyzed colorimetric reaction. The Optical Density of the samples was measured at 450 nm using an ELISA plate reader (BioTek Synergy H1). Following color development, the % inhibition compared to control (BSA-coated plates) was determined. IC-50s were calculated using GraphPad Prism software.
The assay was performed as described in Example 43, with the following modifications. Following to coating the plates with Heparin-BSA, plates were washed as described. The compounds were dissolved in DMSO at 10 mM final concentration and further diluted prior to assay. DMSO concentration in the screening well was up to 2%. Individual compounds were co-incubated with Tau on plates containing immobilized heparin. Tau purchased from rPeptide (Cat. No. T1001) was dissolved in DMSO (Sigma Cat. No. D2650), quickly frozen and kept in aliquots at −80 degrees Celsius. Tau dissolved in PBS (pH 6.5, supplemented with BSA, 0.1%) was added to the ELISA plate (100 μl per well) and incubated for 2 hours at RT with gentle shaking. Following the incubation, the plate was washed with de-ionized water and three times with PBS (pH 6.5) plus Tween. Bound Tau was detected by anti-Tau Monoclonal Antibody D-8 (Santa Cruz Cat. No. sc-166060), followed by secondary anti-IgG antibody conjugated to HRP (R&D System, Cat. No. HAF007). Following to color development with TMB, as described in Example 43, the Optical Density of the samples was measured at 450 nm using an ELISA plate reader. Following color development, the % inhibition compared to control (no compound, DMSO control) for every compound was determined.
An example of inhibition curve is shown in FIG. 3 for Inhibitor Compounds 3 and 6. As described in Example 43, Heparin in the form of Heparin-BSA conjugate is used as a source of HS-GAG. For each compound IC-50 value in Tau—heparin-BSA binding assay is shown in […]. In some cases IC-50 was not measured and […] at 30 μM compound concentration is shown instead. […]

[2] = biological target: TDP-43 binding to heparin (HS-GAG) (Homo sapiens, UniProt Q13148); test: Inhibition of TDP-43 binding to immobilized heparin-BSA (ELISA); set-up: species or system porcine; settings: for inhibition at 30 µM: read-out: TDP43/Heparin Activity (% inhibition class); for IC50: TDP43/Heparin Activity (IC-50), TDP-43, heparin-BSA
Description: as §1
The assay was performed as described in Example 43, with the following modifications.
Following to coating the plates with Heparin-BSA, plates were washed as described. The compounds were dissolved in DMSO at 10 mM final concentration and further diluted prior to assay. DMSO concentration in the screening well was up to 2%. Individual compounds were co-incubated with TDP-43 on plates containing immobilized heparin. TDP43 from R&D System (Cat. No. AP-190) was quickly frozen and kept in aliquots at −80 degrees Celsius. TDP-43 dissolved in PBS (pH 6.5, supplemented with BSA, 0.1%) was added to the ELISA plate (100 μl per well) and incubated for 2 hours at RT with gentle shaking. Following the incubation, the plate was washed with de-ionized water and three times with PBS (pH 6.5) plus Tween. Bound TDP-43 was detected by Anti-TDP43 Monoclonal Antibody (R&D System Cat. No. MAB7778), followed by secondary anti-IgG antibody conjugated to HRP (R&D System, Cat. No. HAF007). Following to color development with TMB, as described in Example 43, the Optical Density of the samples was measured at 450 nm using an ELISA plate reader. Following color development, the % inhibition compared to control (no compound, DMSO control) for every compound was determined.
As described in Example 43, Heparin in the form of Heparin-BSA conjugate is used as a source of HS-GAG. For each compound IC-50 value in TDP-43—heparin-BSA binding assay is shown in μM (micromolar). In some cases IC-50 was not measured and % inhibition at 30 μM compound concentration is shown instead. […] All assays were done on 96-well plates in duplicates and experiments were repeated at least twice. […]

Chain of TDP-43 binding to heparin (HS-GAG) (Q13148 whole entry): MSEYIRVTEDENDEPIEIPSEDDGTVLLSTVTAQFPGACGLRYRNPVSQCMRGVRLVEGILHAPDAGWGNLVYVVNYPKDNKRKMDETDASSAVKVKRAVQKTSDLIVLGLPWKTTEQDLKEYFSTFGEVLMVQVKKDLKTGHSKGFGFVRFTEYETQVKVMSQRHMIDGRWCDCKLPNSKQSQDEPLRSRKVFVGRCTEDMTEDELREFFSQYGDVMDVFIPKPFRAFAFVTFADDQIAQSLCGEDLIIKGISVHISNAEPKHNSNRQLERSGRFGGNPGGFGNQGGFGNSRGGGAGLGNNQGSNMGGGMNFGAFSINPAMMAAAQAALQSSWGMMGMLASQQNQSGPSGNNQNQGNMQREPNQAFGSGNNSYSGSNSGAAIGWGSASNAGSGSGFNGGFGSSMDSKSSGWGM
Chain of Tau binding to heparin (HS-GAG) (P10636 with tags, fused parts or gaps): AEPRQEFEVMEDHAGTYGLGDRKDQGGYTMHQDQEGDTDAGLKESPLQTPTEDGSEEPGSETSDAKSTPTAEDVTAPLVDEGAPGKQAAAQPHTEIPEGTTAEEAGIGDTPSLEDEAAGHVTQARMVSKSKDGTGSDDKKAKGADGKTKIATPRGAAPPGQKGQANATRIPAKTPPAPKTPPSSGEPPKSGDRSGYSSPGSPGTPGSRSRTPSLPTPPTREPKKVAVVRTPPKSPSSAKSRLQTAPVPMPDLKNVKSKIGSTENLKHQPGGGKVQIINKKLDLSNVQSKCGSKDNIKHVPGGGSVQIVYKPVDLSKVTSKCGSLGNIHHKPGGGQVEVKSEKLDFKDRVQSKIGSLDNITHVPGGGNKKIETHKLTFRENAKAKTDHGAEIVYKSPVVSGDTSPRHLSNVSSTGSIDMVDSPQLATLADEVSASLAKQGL

Structure (SMILES) | inhibition at 30 µM [1] [%] | inhibition at 30 µM [2] [%] | inhibition at 30 µM ([1]; 30 μM compound, Tau, heparin-BSA) [%] | IC50 ([1]; Tau, heparin-BSA) [µM] | IC50 [2] [µM]
CN1CCN(c2cc(Nc3ccnc4cc(Cl)ccc34)ccn2)CC1 [Compound 20, 7-chloro-N-(2-(4-methylpiperazin-1-yl)pyridin-4-yl)quinolin-4-amine] | < 30 | < 30 | – | – | –
O=S1(=O)CCN(Cc2ccc(/C=N/Nc3ccnc4cc(F)ccc34)cc2)CC1 [Compound 10, (E)-4-(4-((2-(7-fluoroquinolin-4-yl)hydrazono)methyl)benzyl)thiomorpholine 1,1-dioxide] | – | > 30 | < 30 | – | –
Cc1ncn(-c2ccc(/C=N\Nc3ncnc4cc(Cl)ccc34)cn2)c1C [Compound 15, 7-chloro-4-(2-((6-(4,5-dimethyl-1H-imidazol-1-yl)pyridin-3-yl)methylene)hydrazineyl)quinazoline hydrochloride] | – | – | – | 67.9 | 3.06
Fc1cc(/C=N/Nc2ccnc3cc(Cl)ccc23)ccc1-n1ccnc1 [Compound 35, (E)-7-chloro-4-(2-(3-fluoro-4-(1H-imidazol-1-yl)benzylidene)hydrazineyl)quinoline hydrochloride] | – | – | – | 41.3 | 15.6
